According to patent US8314092B2, “Substituted [(5H-pyrrolo[2,1-c][1,4]benzodiazepin-11-yl)piperazin-1-yl]-2,2-dimethylpropanoic acid compounds as dual activity H1 inverse agonists/5-HT2A antagonists” (Eli Lilly and Company, priority 2011, dated 2012):
Where a name gives a salt, the structure may show the parent alone.

Legend:
Adrenergic alpha2B = Adrenergic alpha2B (Homo sapiens, UniProt P18089); assay: Adrenergic alpha2B binding
From the text: (§1) Further, the compounds of the invention may be tested in binding assays and functional activity assays by well known methods for other physiologically important receptors such as, but not limited to, the hERG channel, other serotonin receptors (specifically 5-HT1A, 5-HT1B, 5-HT1D, 5-HT1E, 5-HT1F receptors, lack of agonist activity at 5-HT2B receptors, 5-HT2C, 5-HT4, 5-HTS, 5-HT6, and 5-HT7 receptors), muscarinic receptors, dopaminergic receptors (specifically D1, D2, and D3), GABAA receptors, adrenergic receptors and monoamine transporters. Certain exemplified compounds are tested at these receptors and are shown to lack significant activity.

5-HT1D = 5-HT1D (Homo sapiens, UniProt P28221); assay: 5-HT1D binding
From the text: as §1

H1 receptor = molecular target: T1, H1 receptor (Rattus norvegicus, UniProt P31390); assay: Histamine H1 receptor occupancy in vivo (doxepin tracer); details: oral gavage, 1 hour before tracer, read-out: H1 RO EC50
T1 construct: from tissue; host or cells: living rat; frontal cortex
Method: Statistical Methods: Curves for each study are fitted to a 4 parameter logistic function with the bottom fixed at 0% using JMP® version 8.0 (SAS Institute Inc, Cary N.C.) and the absolute ED50 is calculated by the software. Values are given as means, standard errors and 95% confidence intervals. […] Briefly, male Sprague-Dawley rats (Harlan Sprague-Dawley, Indianapolis, Ind.) weighing approximately 230-280 grams are given ad lib access to food and water until the beginning of the 3-hour experimental protocol. 3-[4-(8-Fluorodibenzo[b,f][1,4]oxazepin-1′-yl)piperazin-1-yl]-2,2-dimethylpropanoic acid dihydrochloride is used as a positive control and doxepin is used as a tracer. Test compounds and control are administered by oral gavage in a vehicle comprised of 20% hydroxypropyl beta-cyclodextrin. Doxepin is dissolved in sterile water (100 μg/ml), diluted to 2 μg/ml with saline, and administered in a volume of 0.5 mL/kg intravenously via the lateral tail vein to yield a tracer dose of 1 μg/kg. Rats are administered test compound, 15 mg/kg positive control, or vehicle, followed 1 hour later by an intravenous “tracer” dose of doxepin (N=4). It is at the time of tracer administration that RO is considered to be measured. 40 mins after tracer administration, rats are sacrificed by cervical dislocation. Plasma samples are collected and the frontal cortex is removed. […]

Dopamine Transporter = Dopamine Transporter (Homo sapiens, UniProt Q01959); assay: Dopamine transporter assay; format: binding; details: dihydrochloride
From the text: as §1

5-HT1F = 5-HT1F (Homo sapiens, UniProt P30939); assay: 5-HT1F binding
From the text: as §1

Adrenergic alpha2C = Adrenergic alpha2C (Homo sapiens, UniProt P18825); assay: Adrenergic alpha2C binding
From the text: as §1

Serotonin Transporter = Serotonin Transporter (Homo sapiens, UniProt P31645); assay: Serotonin transporter assay; format: binding; details: dihydrochloride
From the text: as §1

[1] = molecular target: human recombinant H1 receptor (Homo sapiens, UniProt P35367); assay: H1 competition binding assay ([3H]-Pyrilamine SPA); set-up: expressed in transfected cells
Method: [^3H]-Pyrilamine binding experiments are carried out in SPA (scintillation proximity assay) 96-well format. Membranes used in this assay are prepared from HEK-293 cells stably expressing recombinant H1 receptor (human). The incubation is initiated by the addition of a mixture of WGA PVT SPA beads (1 mg/well, Perkin Elmer (MA, USA) RPNQ0001) and 3 μg membranes to assay buffer (67 mM Tris; pH 7.6) containing 3.5 nM [^3H]-Pyrilamine and varying concentrations of the test compound (10 point concentration response curves). Non-specific binding is determined in the presence of 10 μM Triprolidine. Samples are incubated for four hours at room temperature (22° C.) and then read in a Microbeta Trilux.
Curves are evaluated using a 4-parameter logistic nonlinear equation to obtain the concentration of competitor causing 50% inhibition of radioligand binding (IC50). Equilibrium dissociation constants (Ki) are calculated according to the equation Ki=IC50/(1+L/Kd), where L equals the concentration of radioligand used in the experiment and Kd equals the equilibrium dissociation constant of the radioligand for the receptor, determined from standard saturation analysis or homologous competition experiments. Reported values for Ki, where n values are indicated, are shown as geometric mean±the standard error of the mean (SEM), with the number of replicate determinations indicated by n. […]

Chain of Adrenergic alpha2C (P18825 whole entry): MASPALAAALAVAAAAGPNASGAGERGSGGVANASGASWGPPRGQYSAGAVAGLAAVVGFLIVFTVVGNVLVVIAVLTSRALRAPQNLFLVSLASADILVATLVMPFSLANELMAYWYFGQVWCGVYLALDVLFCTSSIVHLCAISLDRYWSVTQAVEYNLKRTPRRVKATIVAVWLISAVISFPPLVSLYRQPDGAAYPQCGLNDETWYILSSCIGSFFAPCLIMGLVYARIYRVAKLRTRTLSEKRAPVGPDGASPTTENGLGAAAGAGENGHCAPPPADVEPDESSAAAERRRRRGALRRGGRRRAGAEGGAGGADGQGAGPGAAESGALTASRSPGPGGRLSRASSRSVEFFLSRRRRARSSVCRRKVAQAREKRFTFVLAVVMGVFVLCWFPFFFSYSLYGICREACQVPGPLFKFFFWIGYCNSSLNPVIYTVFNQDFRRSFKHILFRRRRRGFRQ
Chain of Dopamine Transporter (Q01959 whole entry): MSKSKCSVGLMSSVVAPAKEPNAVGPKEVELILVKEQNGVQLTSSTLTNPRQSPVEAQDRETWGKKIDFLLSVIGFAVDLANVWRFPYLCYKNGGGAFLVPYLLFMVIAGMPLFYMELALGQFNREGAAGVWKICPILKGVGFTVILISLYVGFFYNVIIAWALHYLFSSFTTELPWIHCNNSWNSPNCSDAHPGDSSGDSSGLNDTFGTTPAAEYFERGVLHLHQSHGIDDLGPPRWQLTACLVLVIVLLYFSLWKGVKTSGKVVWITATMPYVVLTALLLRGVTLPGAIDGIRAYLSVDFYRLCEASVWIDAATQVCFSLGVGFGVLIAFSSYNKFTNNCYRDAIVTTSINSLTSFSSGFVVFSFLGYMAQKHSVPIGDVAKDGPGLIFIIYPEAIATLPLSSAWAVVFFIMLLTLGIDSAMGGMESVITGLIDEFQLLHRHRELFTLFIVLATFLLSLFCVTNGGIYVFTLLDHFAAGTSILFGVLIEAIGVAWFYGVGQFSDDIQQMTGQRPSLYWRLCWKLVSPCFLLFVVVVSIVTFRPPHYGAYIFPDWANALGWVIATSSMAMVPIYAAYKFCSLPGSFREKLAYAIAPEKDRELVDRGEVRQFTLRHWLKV
Chain of 5-HT1F (P30939 whole entry, species assumed): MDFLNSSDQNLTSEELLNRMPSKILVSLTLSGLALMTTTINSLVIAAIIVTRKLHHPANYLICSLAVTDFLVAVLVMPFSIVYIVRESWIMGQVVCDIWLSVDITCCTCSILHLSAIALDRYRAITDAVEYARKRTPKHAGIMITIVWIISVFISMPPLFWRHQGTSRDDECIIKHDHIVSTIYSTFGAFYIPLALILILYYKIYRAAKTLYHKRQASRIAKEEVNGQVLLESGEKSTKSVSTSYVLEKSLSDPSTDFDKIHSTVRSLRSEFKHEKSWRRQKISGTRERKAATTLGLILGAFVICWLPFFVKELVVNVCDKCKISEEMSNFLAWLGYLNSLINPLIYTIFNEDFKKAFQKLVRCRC
T1 sequence (P31390 whole entry): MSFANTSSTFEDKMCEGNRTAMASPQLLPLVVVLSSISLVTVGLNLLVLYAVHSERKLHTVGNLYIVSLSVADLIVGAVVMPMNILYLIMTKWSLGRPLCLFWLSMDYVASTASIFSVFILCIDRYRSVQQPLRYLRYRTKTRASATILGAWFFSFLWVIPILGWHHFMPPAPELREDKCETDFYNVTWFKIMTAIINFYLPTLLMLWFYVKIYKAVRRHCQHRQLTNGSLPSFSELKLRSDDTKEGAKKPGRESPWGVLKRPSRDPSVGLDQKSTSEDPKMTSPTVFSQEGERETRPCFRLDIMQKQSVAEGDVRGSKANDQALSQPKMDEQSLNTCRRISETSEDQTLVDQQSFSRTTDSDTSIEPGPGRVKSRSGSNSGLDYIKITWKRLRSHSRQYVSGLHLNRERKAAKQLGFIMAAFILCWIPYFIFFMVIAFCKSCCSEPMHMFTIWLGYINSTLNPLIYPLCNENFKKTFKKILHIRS
Chain of Adrenergic alpha2B (P18089 whole entry): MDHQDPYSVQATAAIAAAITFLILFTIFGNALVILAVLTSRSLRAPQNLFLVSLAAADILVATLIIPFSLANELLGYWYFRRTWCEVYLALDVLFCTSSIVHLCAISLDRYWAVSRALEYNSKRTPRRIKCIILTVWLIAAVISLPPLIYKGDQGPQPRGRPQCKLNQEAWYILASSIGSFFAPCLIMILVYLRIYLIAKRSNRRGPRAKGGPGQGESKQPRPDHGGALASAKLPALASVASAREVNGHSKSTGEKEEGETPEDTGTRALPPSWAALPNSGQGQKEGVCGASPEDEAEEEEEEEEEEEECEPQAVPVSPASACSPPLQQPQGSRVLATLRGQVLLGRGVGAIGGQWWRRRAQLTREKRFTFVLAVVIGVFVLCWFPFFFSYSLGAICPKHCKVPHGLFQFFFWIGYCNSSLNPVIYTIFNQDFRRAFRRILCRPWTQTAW
Chain of Serotonin Transporter (P31645 whole entry): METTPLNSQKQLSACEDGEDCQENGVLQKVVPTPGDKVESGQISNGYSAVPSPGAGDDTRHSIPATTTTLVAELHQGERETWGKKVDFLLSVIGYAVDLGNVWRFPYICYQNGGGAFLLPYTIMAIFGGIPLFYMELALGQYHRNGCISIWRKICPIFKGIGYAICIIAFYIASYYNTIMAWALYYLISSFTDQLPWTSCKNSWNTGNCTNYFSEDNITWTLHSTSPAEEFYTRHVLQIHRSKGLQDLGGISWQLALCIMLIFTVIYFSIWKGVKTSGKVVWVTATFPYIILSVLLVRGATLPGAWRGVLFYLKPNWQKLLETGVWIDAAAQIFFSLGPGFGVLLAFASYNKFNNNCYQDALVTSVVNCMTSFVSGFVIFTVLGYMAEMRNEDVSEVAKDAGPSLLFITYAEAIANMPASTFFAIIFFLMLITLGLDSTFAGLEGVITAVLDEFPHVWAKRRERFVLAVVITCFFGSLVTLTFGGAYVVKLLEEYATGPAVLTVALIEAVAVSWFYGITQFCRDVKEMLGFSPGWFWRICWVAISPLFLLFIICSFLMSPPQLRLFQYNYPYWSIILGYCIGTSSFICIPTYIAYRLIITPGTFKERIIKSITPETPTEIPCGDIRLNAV
Chain of 5-HT1D (P28221 whole entry, species assumed): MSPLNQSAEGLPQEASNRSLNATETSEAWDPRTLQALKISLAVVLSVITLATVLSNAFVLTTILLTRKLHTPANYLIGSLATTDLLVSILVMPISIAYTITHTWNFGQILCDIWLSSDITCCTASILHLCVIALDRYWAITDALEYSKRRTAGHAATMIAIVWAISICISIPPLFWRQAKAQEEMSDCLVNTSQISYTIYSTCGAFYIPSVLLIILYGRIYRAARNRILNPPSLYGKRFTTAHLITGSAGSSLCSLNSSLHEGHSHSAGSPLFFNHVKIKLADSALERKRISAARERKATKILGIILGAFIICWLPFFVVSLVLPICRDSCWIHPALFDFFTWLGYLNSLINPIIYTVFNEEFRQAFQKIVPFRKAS
Chain of human recombinant H1 receptor (P35367 whole entry): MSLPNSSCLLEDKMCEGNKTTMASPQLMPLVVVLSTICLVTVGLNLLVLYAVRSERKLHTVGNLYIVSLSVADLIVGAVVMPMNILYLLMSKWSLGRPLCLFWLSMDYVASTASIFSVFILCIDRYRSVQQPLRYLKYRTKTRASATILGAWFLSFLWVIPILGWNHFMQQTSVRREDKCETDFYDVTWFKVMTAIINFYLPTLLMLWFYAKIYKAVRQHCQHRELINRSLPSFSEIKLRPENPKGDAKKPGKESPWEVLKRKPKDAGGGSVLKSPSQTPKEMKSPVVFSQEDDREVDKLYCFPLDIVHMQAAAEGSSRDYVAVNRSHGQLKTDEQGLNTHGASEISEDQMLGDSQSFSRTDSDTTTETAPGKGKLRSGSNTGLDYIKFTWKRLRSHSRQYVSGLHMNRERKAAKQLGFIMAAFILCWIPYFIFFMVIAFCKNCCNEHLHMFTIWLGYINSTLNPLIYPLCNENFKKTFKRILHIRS

Question: `Cc1cc2n(c1)Cc1cc(Cl)ccc1N=C2N1CCN(CC(C)(C)C(=O)O)CC1` [Example 13, 3-[4-(7-Chloro-2-methyl-5H-pyrrolo[2,1-c][1,4]benzodiazepin-11-yl)piperazin-1-yl]-2,2-dimethylpropanoic acid dihydrochloride] was tested. Which Ki (Adrenergic alpha2B) did it give?
Answer: The Ki was > 4.8 µM.

Question: What about the Ki (5-HT1D) of the same compound?
Answer: The Ki was > 8.55 µM.

Question: And the ED50 (H1 receptor)?
Answer: The ED50 was 0.3 mg/kg.

Question: What about the “Dopamine Transporter” value (Dopamine Transporter) of the same compound?
Answer: Its value is >880.

Question: And the Ki (5-HT1F)?
Answer: Its Ki is > 8.25 µM.

Question: And the Ki (Adrenergic alpha2C)?
Answer: Its Ki is > 5.33 µM.

Question: And the “Serotonin Transporter” value (Serotonin Transporter)?
Answer: Its value is >515.

Question: What about the Ki [1] of the same compound?
Answer: Its Ki is 0.0168 µM.
